Measured values from patent US20240009269A1 (priority 2020, published 2024).
Like-named read-outs stand apart in the source and are kept apart here.

Columns and labels:
[1] = Solubility stated in text; format: physicochemical; conditions: vs 1-10 μM
dhBMECs in microvessels = assay: Analysis of cell behavior in tissue-engineered microvessels; format: cell-based, human
Text: To monitor cell dynamics, cell loss and proliferation events were counted manually. Rates of cell loss (% h^−1), division (% h^−1), turnover (% h^−1), and cell loss at the site of a focal leak (%) were quantified from phase contrast imaging sequences, as reported previously. Briefly, the total number of endothelial cells was counted manually for each microvessel plane, utilizing a region approximately 100 μm wide corresponding to about a fifth of the channel circumference. Cell loss was identified by observing the removal of a cell from the microvessel. Cell loss from the monolayer occurred through two processes: (1) apoptotic loss, in which a cell constricts, releases its contents into the vessel lumen, which is then removed from the monolayer over a period of 20-60 minutes, and (2) non-apoptotic loss, in which a cell swells and disappears from the monolayer over a period of 2-6 minutes. Cell division was identified by observing cell compression, alignment of chromosomes, and the formation of daughter cells. The rate of turnover (% h^−1) is the difference between the rate of cell division and the rate of cell loss. A cell loss event was identified to be at the site of a focal leak if it occurred within <50 μm and <4 minutes of the occurrence of a focal leak. For a limited set of experiments, the WTC iPSC line [Kreitzer, F. R., et al., Am J Stem Cells, 2013. 2(2): p. 119-31] with GFP-tagged zona occludens-1 (Allen Cell Institute) was used to facilitate live-cell monitoring of tight junction organization.
Confocal z-stacks (0.4 μm in thickness) at 40× magnification were obtained on a swept field confocal microscope system (Prairie Technologies). Illumination was provided by an MLC 400 monolithic laser combiner (Keysight Technologies). Complete reconstruction of the microvessel lumen required approximately four hundred slices. Confocal imaging was conducted before, during, and after exposure to 50 μM·minute melittin treatment.

[2] = test system: mouse brain (blood-brain barrier)
Text: Briefly, male C57BL/6J mice (n=43, 6-8 weeks old, 20-25 g, Jackson Laboratory) were anesthetized with 2% isoflurane. The common carotid artery (CCA) bifurcation was exposed and the occipital artery branching off from the external carotid artery (ECA) was coagulated. The ECA and the pterygopalatine artery (PPA) were temporarily ligated with 4-0 silk sutures. A temporary ligature using a 4-0 suture was placed on the carotid bifurcation and the proximal CCA was permanently ligated. A microcatheter (PE-8-100, SAI Infusion Technologies) was flushed with 2% heparin (1,000 U mL^−1, heparin sodium, Upjohn), inserted into the CCA via a small arteriotomy, and advanced into the internal carotid artery (ICA).
For each animal, 150 μL of solution was infused at a rate of 150 μL minute^−1. […] The brains were harvested immediately after Evans Blue injection, sectioned in brain slicer matrix (Zivic Instruments) to produce 1 mm slabs.
Animal anesthesia was maintained at 1.5-2% during the MRI scan. Mice were placed on a water-heated animal bed equipped with temperature and respiratory control. Respiration was monitored and maintained at 30-60 minutes^−1. All MRI experiments were performed on a Bruker 11.7T MRI scanner. Baseline T2 (TR/TE=2,500/30 ms), susceptibility-weighted imaging (SWI) (TR/TE=378/8 ms), T1 (TR/TE 350/6.7 ms)-weighted, dynamic gradient echo echo-planar imaging (GE-EPI, TR/TE 1250/9.7 ms, field of view (FOV)=14×14 mm, matrix=128×128, acquisition time=60 s and 24 repetitions) and dynamic T1 imaging (TR/TE 2000/3. 5ms, field of view=14×14 mm, acquisition time=8 seconds and 20 repetitions) images of the brain were acquired. The microcatheter was connected to a syringe mounted on an MRI compatible programmable syringe pump (PHD 2000, Harvard Apparatus Inc.). Gadolinium (Gd; Prohance) dissolved in saline at 1:50 was infused intra-arterially at the rate of 150 μL minute^−1 under dynamic GE-EPI MRI for visualization of perfusion territory. […] To quantify BBB status, T1 intensities in cortex, hippocampus and thalamus/hypothalamus were compared between ipsilateral and contralateral hemispheres. T1 hyperintensity was corrected for possible asymmetry using pre-contrast T1 images and normalized as the ratio of ipsilateral to contralateral intensity. Additionally, the area of BBBO (mm^2) was calculated by conversion of T1 images to binary using the Auto Threshold function (plugin v1.17; Maximum Entropy method) [Kapur, J. N., P. K. Sahoo, and A. K. C. Wong, Computer Vision, Graphics, and Image Processing, 1985, 29(3): p. 273-285] in ImageJ. T2-weighted and SWI images were acquired at the same timepoints for detection of brain damage and microhemorrhage. Subsequently, animals were sacrificed for further histological assessment.
To determine the area and region of perfusion territory, we first calculated the contrast enhancement maps at the time where contrast enhancement was at its maximum. As Gd causes negative contrast under T2 imaging, we calculated the contrast enhancement as (SIpre-SIpost)/SIpre, where SI is the signal intensity of an MR image. Histogram was plotted for all pixels in the brain region in a contrast enhancement map and further fitted into two Gaussian distributions, assuming there were two dominant populations for non-contrast enhanced and contrast-enhanced pixels, respectively. The cutoff value to separate the two populations was then determined. The fraction of contrast enhanced areas was calculated by the ratio of the number of pixels, whose values are larger than the cutoff value, to the total number of pixels in the brain. A similar method was used to determine the BBBO territory.

[3] = Estimated systemic exposure after intra-arterial injection; format: in vivo, mouse
mice = conditions: intraperitoneal administration; cited from earlier work

CC[C@H](C)[C@H](NC(=O)CN)C(=O)NCC(=O)N[C@@H](C)C(=O)N[C@H](C(=O)N[C@@H](CC(C)C)C(=O)N[C@@H](CCCCN)C(=O)N[C@H](C(=O)N[C@@H](CC(C)C)C(=O)N[C@H](C(=O)N[C@H](C(=O)NCC(=O)N[C@@H](CC(C)C)C(=O)N1CCC[C@H]1C(=O)N[C@@H](C)C(=O)N[C@@H](CC(C)C)C(=O)N[C@H](C(=O)N[C@@H](CO)C(=O)N[C@@H](Cc1c[nH]c2ccccc12)C(=O)N[C@H](C(=O)N[C@@H](CCCCN)C(=O)N[C@@H](CCCNC(=N)N)C(=O)N[C@@H](CCCCN)C(=O)N[C@@H](CCCNC(=N)N)C(=O)N[C@@H](CCC(N)=O)C(=O)N[C@@H](CCC(N)=O)C(N)=O)[C@@H](C)CC)[C@@H](C)CC)[C@@H](C)O)[C@@H](C)O)C(C)C)C(C)C [melittin]
solubility relative to the concentrations for membrane activity [1]: more than 30 fold
cell division rate (dhBMECs in microvessels; across melittin doses 3-100 μM·minute): about 1 % h^−1
cell loss rate following melittin exposure (dhBMECs in microvessels; doses 3-100 μM·minute): dose-dependent
turnover of dhBMECs (division rate minus loss rate) (dhBMECs in microvessels; doses 3-100 μM·minute): negative
cell response, GFP-tagged ZO1 dhBMEC microvessels (dhBMECs in microvessels; high melittin doses (100 μM·min)): cells contracted
Evans Blue leakage ([2]; 1 μM·minute): No leakage of Evans Blue
dose relative to solubility limit (fold below) ([2]; 3 μM·min melittin): ~120 fold
Evans Blue leakage ([2]; 3 μM·minute, ipsilateral hemisphere): reproducible leakage of Evans Blue
Evans Blue extravasation ([2]; 3 μM·minute, 24 hours): no Evans Blue extravasation
leakage of Gd (T1 MRI) ([2]; 3 μM·minute, 24 hours): marginal leakage
T1 hyperintensity ([2]; 3 μM·minute, cortex): much lower
BBB status (Gd-enhanced MRI and Evans Blue) ([2]; 3 μM·minute, day 7): full recovery of the BBB
T1 intensity, ipsilateral vs contralateral ([2]; 3 μM·minute, hippocampus and thalamus/hypothalamus, following dosing): significant increase
brain territory opened (area of BBBO, T1 thresholding) ([2]; 3 μM·minute, within the hippocampus, immediately after dosing): 5.70±1.73 mm^2
Evans Blue leakage ([2]; 5 μM·minute): Widespread leakage of Evans Blue
reduction of BBBO area ([2]; at 24 hours and 7 days): ~20 fold
minimum effective dose for BBBO ([2]; intra-arterial (internal carotid artery), 1 minute): 3 µM·min
difference in dose required for BBBO, human microvessels (20 μM·minute) vs mouse brain (3 μM·minute) ([2]; mouse, in vivo): approximately 7 fold
systemic dose, fold lower than the LD50 ([3]; 3 μM·min melittin, mouse weight of 20 g assumed): ~50 fold
melittin concentration after dilution in the bloodstream ([3]; 3 μM·min, 150 μL injection diluted into 1.2 mL of whole blood (assumed)): 0.33 µM
reduction of melittin concentration upon exiting the brain ([3]; dilution in the bloodstream assumed): ~10 fold
LD50 (mice): 3.2 mg/kg
